Legend:
[1] = system: Δmcr cro/cI(Q16stop) ΔSAUSA300_0353 (GNE0210); test: MIC fold increase, GNE0210; assay type: cell-based, S. aureus
Description: (§1) MICs were determined according to the standard protocol from the Clinical and Laboratory Standards Institute ([23]). Briefly, S. aureus bacteria were harvested from regular MHA plates that had been cultured for ~20 h at 37°C. Serial dilutions of compound 103 were incubated with bacteria at approximately 10^6 CFU (CFU)/ml in MHB in round-bottom 96 well plates (Corning, Corning, NY) for 22 h at 37°C. MICs were determined by the lowest concentration of compound 103 showing absence of growth by visual inspection.
(§2) To generate mutations in SAUSA300_0351, _0352, and _0353 genes by homologous recombination, we transformed USA300 Δmcr using targeting constructs created in the vector pIMAY ([24]). To generate mutations in SAUSA300_0351, _0352, and _0353 genes in a cro/cI mutant background, we selected colonies from USA300 Δmcr cultured on plates containing fourfold the MIC of compound 103. Sequencing of PCR products of the cro/cI gene from resistant colonies yielded a clone with a Q16stop codon mutation in cro/cI (strain GNE0173). We further mutated SAUSA300_0351, _0352, and _0353 in this USA300 Δmcr cro/cI (Q16stop) clone to study the contributions of these three genes to cro/cI-mediated resistance.

[2] = system: SpsB H68Y mutant of USA300 Δmcr cro/cI(Q16stop) SAUSA300_0352(K44A); test: MIC fold increase, SpsB H68Y mutant; assay type: cell-based, S. aureus
Description: as §1

[3] = system: cro/cI(M1V)(pcro/cI-cro/cI) (GNE0109); test: MIC fold increase, GNE0109; assay type: cell-based, S. aureus
Description: as §1

[4] = system: S. aureus USA300 SpsB-high; test: MIC, USA300 SpsB-high; assay type: cell-based; settings: result in words
Description: as §1
A strain of USA300 Δmcr overexpressing SpsB (USA300 SpsB-high; GNE0028) was engineered by cloning SpsB under the constitutive sarA promoter into vector pMK4, resulting in SpsB expression that was ~20-fold higher than the wild-type level as determined by Western blotting. A USA300 Δmcr strain that underexpresses SpsB (USA300 SpsB-low; […]) was generated by genomic incorporation of spsB under the isopropyl-β-D-thiogalactopyranoside (IPTG)-sensitive promoter spac; without IPTG, this strain expresses SpsB at ~5% of the wild-type level as determined by Western blotting.

[5] = system: SpsB Y30D mutant of USA300 Δmcr cro/cI(Q16stop) SAUSA300_0352(K44A); test: MIC fold increase, SpsB Y30D mutant; assay type: cell-based, S. aureus
Description: as §1

[6] = system: cro/cI(−14G→T)(pcro/cI-cro/cI) (GNE0097); test: MIC fold increase, GNE0097; assay type: cell-based, S. aureus
Description: as §1

[7] = system: psarA-SAUSA300_0351_0352_0353 (GNE0162); test: MIC fold increase, GNE0162; assay type: cell-based, S. aureus
Description: as §1, §2

[8] = system: Δmcr cro/cI(Q16stop) Δ(SAUSA300_0351-SAUSA300_0352-SAUSA300_0353) (GNE0220); test: MIC fold increase, GNE0220; assay type: cell-based, S. aureus
Description: as §1, §2

[9] = system: SpsB V167F mutant of USA300 Δmcr cro/cI(Q16stop) SAUSA300_0352(K44A); test: MIC fold increase, SpsB V167F mutant; assay type: cell-based, S. aureus
Description: as §1

[10] = system: SpsB H69L mutant of USA300 Δmcr cro/cI(Q16stop) SAUSA300_0352(K44A); test: MIC fold increase, SpsB H69L mutant; assay type: cell-based, S. aureus
Description: as §1

[11] = system: cro/cI(−62G→A)(pMK4) (GNE0099); test: MIC fold increase, GNE0099; assay type: cell-based, S. aureus
Description: as §1

[12] = system: Δmcr cro/cI(Q16stop) SAUSA300_0352(K44A) (GNE0175); test: MIC fold increase, GNE0175; assay type: cell-based, S. aureus
Description: as §1, §2

`CCCCc1ccc(-c2ccc(C(=O)N[C@@H](CCCCN)C(=O)N(C)[C@@H]3C(=O)N[C@@H](C)C(=O)N[C@H](C(=O)NCC(C)C(=O)O)Cc4ccc(O)c(c4)-c4cc3ccc4O)cc2)cc1` (stereo partly drawn) [Compound 103] was tested, and the “MIC of compound 103 (fold increase versus MIC for USA300 WT)” value ([1]; GNE0210) was 1.0 fold, the resistance phenotype ([1]; GNE0210, deletion of SAUSA300_0353, result in words) was “reversed the resistant phenotype” and the “MIC of compound 103 (fold increase versus MIC for USA300 WT)” value [2] was 8 fold. For the same molecule, the “MIC of compound 103 (fold increase versus MIC for USA300 WT)” value ([3]; GNE0109) was 1.7 fold, the resistance phenotype ([3]; GNE0109, plasmid-encoded WT cro/cI, result in words) was “reversed the resistant phenotype” and the “MIC for an SpsB-overexpressing strain” value [4] was “increased MIC”. The “MIC of compound 103 (fold increase versus MIC for USA300 WT)” value [5] was 8 fold, the “MIC of compound 103 (fold increase versus MIC for USA300 WT)” value ([6]; GNE0097) was 3.0 fold and the resistance phenotype ([6]; GNE0097, plasmid-encoded WT cro/cI, result in words) was “reversed the resistant phenotype”. For the same molecule, the “MIC of compound 103 (fold increase versus MIC for USA300 WT)” value ([7]; GNE0162) was greater than 32 fold, the resistance phenotype ([7]; GNE0162, overexpression of 3 ABC transporter genes, result in words) was “induced resistance” and the “MIC of compound 103 (fold increase versus MIC for USA300 WT)” value ([8]; GNE0220) was 2.0 fold. The resistance phenotype ([8]; GNE0220, deletion of all 3 ABC transporter genes, result in words) was “reversed the resistant phenotype”, the “MIC of compound 103 (fold increase versus MIC for USA300 WT)” value [9] was 8 fold and the “MIC of compound 103 (fold increase versus MIC for USA300 WT)” value [10] was 4 fold. For the same molecule, the “MIC of compound 103 (fold increase versus MIC for USA300 WT)” value [11] was greater than 32 fold, the “MIC of compound 103 (fold increase versus MIC for USA300 WT)” value ([12]; GNE0175) was 1.0 fold and the resistance phenotype ([12]; GNE0175, SAUSA300_0352(K44A), result in words) was “reversed the resistant phenotype”.

Reference: publication PMC5013292, “A Putative Bacterial ABC Transporter Circumvents the Essentiality of Signal Peptidase” (mBio, 2016)
